Measurements taken from article PMC11306511, “Combining VPS34 inhibitors with STING agonists enhances type I interferon signaling and anti‐tumor efficacy” (Molecular Oncology, 2024).
In brackets after ≈: the same amount, converted by molar mass. Read-outs that look alike come from different tables or passages of the source.

Key:
In vivo mouse PK = settings: po; in vivo mouse PK
Description: (§1) Experiments were conducted at Aragen Life Sciences Ltd. (Hyderabad, India) according to internal standard procedures.

[1] = Solubility (PBS, FaSSIF, SGF); assay type: physicochemical
Description: as §1

CYP3A4 = CYP3A4 (Homo sapiens, UniProt P08684); experiment: CYP inhibition; assay type: in vitro ADME
Description: as §1

pKa = assay type: physicochemical; settings: read-out: pKa (weakly basic)
Description: as §1

Renca tumors = experiment: NanoString gene expression and network enrichment analysis of Renca tumors; assay type: in vivo, mouse
Source text: (§2) Study protocols were approved by the Institutional Animal Care and Use Committee of CrownBio in China (AN‐1903‐05‐313) or the LIH's animal welfare committee in Luxembourg (agreement LECR‐2018‐12). Mice were handled according to European Union guidelines, adhering to the principles of replacement, reduction, and refinement (3Rs). Animals were housed in appropriate accommodations conducive to their well‐being, with provisions for housing, feeding, and environmental enrichment to meet their physical and behavioral needs. Highly skilled personnel were involved in carrying out procedures related to the animal experiments to ensure proper care and handling. Female 6 to 8‐week‐old BALB/c (supplied by Shanghai Lingchang Biotechnology Co., Shanghai, China; n = 14) or C57BL/6 mice (supplied by Janvier Labs, Le Genest‐Saint‐Isle, France; n = 40) were injected into the right flank with 1 × 10^6 Renca or 0.2 × 10^6 B16‐F10 cells, respectively, resuspended in 100 μL PBS (day 0). When tumors were palpable (day 9 for Renca, day 7 for B16‐F10 tumors), mice were randomly assigned into two groups for the Renca model with n = 6 (vehicle) and n = 8 (SB02024) or four groups for the B16‐F10 model with n = 10. Daily treatment with 20 mg·kg^−1 SB02024 or vehicle (0.5% methylcellulose in water supplemented with 1% Tween‐80) was administered by oral gavage (day 9–16 for Renca, day 7–16 for B16‐F10 model). For combination studies, ADU‐S100 (10 μg in 40–50 μL PBS) or vehicle (PBS) treatment was administered by intratumoral injection (days 9, 11, 13, and 15). Tumor growth was measured using a caliper every other day and estimated as follows: volume (cm^3) = (width)^2 × length × 0.5.
Renca tumor RNA was isolated using the Rneasy Plus kit (#74134; Qiagen, Venlo, the Netherlands), quantified using a NanoDrop spectrophotometer (Thermo Fisher), and 100 ng was used as input for the nCounter PanCancer IO 360 mouse panel (NanoString Technologies, Seattle, WA, USA). Data were analyzed by NanoString's data analysis service. Network enrichment analysis (NEA) was carried out by Evi‐networks, Sweden (see detailed description in Table S2).

[2] = Plasma protein binding, mouse; assay type: in vitro ADME; settings: unbound/free fraction, read-out: PPB (% unbound) mouse
Description: as §1

A-498 cells = experiment: IFN/cytokine gene expression (qRT-PCR) and secretion (MSD) in A-498 cells; assay type: cell-based, human; settings: 2 μM, 24 h, vs DMSO
Description: RNA was isolated using the PureLink kit (#12183018A; Thermo Fisher) and DNA‐binding columns (Rneasy plus kit, #74134; Qiagen) and/or Dnase treatment (#12185010; Thermo Fisher). After quantification using NanoDrop, 50 ng·μL^−1 RNA was used for cDNA synthesis with SuperScript IV VILO Master Mix (#11756050; Thermo Fisher). Quantitative RT‐PCR was run with diluted cDNA (1 : 25 or 1 : 12.5), PowerUp SYBR Green Master Mix (#A25741; Thermo Fisher), and 200 nM primers (see Table S3) on a CFX Connect RT‐PCR system (BioRad, Hercules, CA, USA). Data were analyzed using the ΔΔCT method.
Cell culture medium was centrifuged at 300 g for 10 min at 4 °C and supernatant stored at −80 °C. Mouse blood was collected at termination in K2‐EDTA tubes on ice, centrifuged at 1270 g for 10 min at 4 °C, and plasma was stored at −80 °C. Cytokine levels were quantified using Mesoscale Discovery (MSD) assays: human CCL5 (#F21ZN), CXCL10 (#K151UFK), IFNβ (#K151VIK); mouse CCL5 (#K152A2K) and CXCL10 (#K152UFK). Low concentrations of human IFNβ were determined using High‐Sensitivity IFNβ ELISA (#41415‐1; PBL Assay Science, Piscataway, NJ, USA). CCL5/CXCL10 levels in some experiments were quantified using R&D Systems (Minneapolis, MN, USA) ELISAs: human CCL5 (#DY278) or CXCL10 (#DY266); mouse CCL5 (#DY478).

B16-F10 tumors = experiment: Tumor growth inhibition study, B16-F10 tumor-bearing mice; assay type: in vivo, mouse; settings: B16-F10 in C57BL/6 mice; SB02024 20 mg·kg^−1 oral daily day 7-16; ADU-S100 10 μg intratumoral days 9, 11, 13, 15
Source text: as §2, with “Daily treatment with 20 mg·kg^−1 SB02024 or vehicle (0.5% methylcellulose in water supplemented with 1% Tween‐80) was administered by oral gavage (day 9–16 for Renca, day 7–16 for B16‐F10 model). For combination studies, ADU‐S100 (10 μg in 40–50 μL PBS) or vehicle (PBS) treatment was administered by intratumoral injection (days 9, 11, 13, and 15).” left out

VPS34 activity = experiment: PD: GFP-2xFYVE puncta in H1299 tumors (immunohistochemistry); assay type: in vivo, mouse; settings: 9 or 29 mg·kg^−1 oral
Description: The study was performed by Truly Translational AB (Lund, Sweden) following Swedish legislations and approved by the ethical committee Malmö/Lunds djurförsöksetiska nämnd (M120‐15). Animals were housed 5/cage in polysulfone IVC cages at a constant temperature with 12 h light‐dark cycles and free access to food, tap water, and cage enrichment. Animals were allowed to acclimatize to the housing conditions for at least a week before the start of experiments. Female 8‐week‐old NOD.Cg‐Prkdc^ scid Il2rg^ tm1Sug /JicTac (CIEA‐NOG®) mice (supplied by Taconic Biosciences, Rensselaer, NY, USA; n = 42) were implanted subcutaneously with 1.75 × 10^6 H1299‐GFP2xFYVE cells in serum‐free RPMI in 50% Matrigel. When tumors reached 300–400 mm^3 mice were randomized and dosed with 9 or 29 mg·kg^−1 SB02024 or vehicle (PEG 200 (98%)/Polysorbate (2%)). At indicated time points after dosing, blood samples were taken by heart puncture and tumors were removed. Pharmacokinetic (PK) analysis (plasma and tumor samples) was performed by Q&Q Labs (Gothenburg, Sweden). Plasma was precipitated with acetonitrile, and after centrifugation, the soluble material was recovered. […] SB02024 levels were determined using UHPLC‐QQQ: Agilent 6460 (LC–MS/MS; Agilent Technologies, Santa Clara, CA, USA). […] Each TMA block was sectioned and analyzed at eight equally spaced levels. […]

[3] = 20 mg·kg^−1, NanoString, vs vehicle

CYP3A4, sequence (P08684 whole entry): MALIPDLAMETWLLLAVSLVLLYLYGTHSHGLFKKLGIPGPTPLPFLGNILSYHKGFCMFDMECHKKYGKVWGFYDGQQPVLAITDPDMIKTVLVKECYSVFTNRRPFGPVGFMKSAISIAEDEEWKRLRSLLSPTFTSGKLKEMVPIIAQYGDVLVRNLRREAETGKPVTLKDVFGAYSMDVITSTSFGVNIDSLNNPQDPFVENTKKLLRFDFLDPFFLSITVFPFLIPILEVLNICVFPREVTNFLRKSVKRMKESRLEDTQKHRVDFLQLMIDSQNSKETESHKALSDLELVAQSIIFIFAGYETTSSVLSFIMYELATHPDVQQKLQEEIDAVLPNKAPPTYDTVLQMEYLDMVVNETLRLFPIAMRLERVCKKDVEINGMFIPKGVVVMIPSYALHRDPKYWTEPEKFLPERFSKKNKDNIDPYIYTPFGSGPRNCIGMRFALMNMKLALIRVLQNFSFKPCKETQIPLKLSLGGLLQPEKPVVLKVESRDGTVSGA

bioavailability (In vivo mouse PK): 96% | solubility in both gastric and small intestinal pH media (in words) [1]: excellent | solubility ([1]; FaSSIF, pH 6.5, fassif, read-out: Solubility FaSSIF, pH 6.5): 890 µM (≈ 307 µg/mL) | solubility ([1]; PBS buffer, pH 7.4, aqueous buffer, read-out: Solubility in PBS buffer, pH 7.4): 175 µM (≈ 60.4 µg/mL) | solubility ([1]; SGF, pH 1.8, simulated gastric fluid, read-out: Solubility SGF, pH 1.8): 2150 µM (≈ 743 µg/mL) | inhibition of CYP3A (in words) (CYP3A4): weak inhibition | inhibition at 10 µM (CYP3A4; human, 10 μM, 3A4, read-out: Highest CYP inhibition (%) @ 10 μM): 14% | pKa (pKa): 2.2 | fraction unbound [2]: 0.14
SMILES: C[C@@H]1COCCN1c1cc(N2CCCC[C@@H]2C(F)(F)F)[nH]c(=O)c1 [SB02024]
Ptprc gene expression (CD45+ cells) in Renca tumors (Renca tumors; [3]): significantly increased | gene signatures for cytotoxic cells, T cells, total and CD56dim NK cells, macrophages, neutrophils (Renca tumors; [3]): significant increase | Reactome gene signature for STING-mediated signaling, enrichment (Renca tumors; NEA, r-mmu-3134975 as printed, treated tumors vs vehicle controls): enrichment | STAT1 and IFN gene signature for ICB sensitivity (Zemek et al.), enrichment (Renca tumors; NEA, treated tumors vs vehicle controls): significantly enriched | transcription of IFNB1 and ISGs IRF1, IRF7, IRF9 (A-498 cells): significantly increased | % TGI (percent tumor growth inhibition compared to vehicle control) (B16-F10 tumors): 27% | duration of inhibition of GFP-2xFYVE puncta formation (VPS34 activity): about 8 h | GFP-2xFYVE puncta (autophagosome and endosome) formation in H1299 tumors (VPS34 activity; after 2 h): inhibited
